Results published in ChEMBL document CHEMBL3991601, “The target landscape of clinical kinase drugs” (Science, 2017).
pKd: −log10 of the molar value. The source made the active and inactive calls.

Columns and labels:
[1] = target: Serine/threonine-protein kinase pim-1 (Homo sapiens, UniProt P11309)
[2] = target: Casein kinase I isoform gamma-1 (Homo sapiens, UniProt Q9HCP0)
[3] = target: T1, Eukaryotic translation initiation factor 5B (Homo sapiens, UniProt O60841)
T1 sequence (O60841 whole entry): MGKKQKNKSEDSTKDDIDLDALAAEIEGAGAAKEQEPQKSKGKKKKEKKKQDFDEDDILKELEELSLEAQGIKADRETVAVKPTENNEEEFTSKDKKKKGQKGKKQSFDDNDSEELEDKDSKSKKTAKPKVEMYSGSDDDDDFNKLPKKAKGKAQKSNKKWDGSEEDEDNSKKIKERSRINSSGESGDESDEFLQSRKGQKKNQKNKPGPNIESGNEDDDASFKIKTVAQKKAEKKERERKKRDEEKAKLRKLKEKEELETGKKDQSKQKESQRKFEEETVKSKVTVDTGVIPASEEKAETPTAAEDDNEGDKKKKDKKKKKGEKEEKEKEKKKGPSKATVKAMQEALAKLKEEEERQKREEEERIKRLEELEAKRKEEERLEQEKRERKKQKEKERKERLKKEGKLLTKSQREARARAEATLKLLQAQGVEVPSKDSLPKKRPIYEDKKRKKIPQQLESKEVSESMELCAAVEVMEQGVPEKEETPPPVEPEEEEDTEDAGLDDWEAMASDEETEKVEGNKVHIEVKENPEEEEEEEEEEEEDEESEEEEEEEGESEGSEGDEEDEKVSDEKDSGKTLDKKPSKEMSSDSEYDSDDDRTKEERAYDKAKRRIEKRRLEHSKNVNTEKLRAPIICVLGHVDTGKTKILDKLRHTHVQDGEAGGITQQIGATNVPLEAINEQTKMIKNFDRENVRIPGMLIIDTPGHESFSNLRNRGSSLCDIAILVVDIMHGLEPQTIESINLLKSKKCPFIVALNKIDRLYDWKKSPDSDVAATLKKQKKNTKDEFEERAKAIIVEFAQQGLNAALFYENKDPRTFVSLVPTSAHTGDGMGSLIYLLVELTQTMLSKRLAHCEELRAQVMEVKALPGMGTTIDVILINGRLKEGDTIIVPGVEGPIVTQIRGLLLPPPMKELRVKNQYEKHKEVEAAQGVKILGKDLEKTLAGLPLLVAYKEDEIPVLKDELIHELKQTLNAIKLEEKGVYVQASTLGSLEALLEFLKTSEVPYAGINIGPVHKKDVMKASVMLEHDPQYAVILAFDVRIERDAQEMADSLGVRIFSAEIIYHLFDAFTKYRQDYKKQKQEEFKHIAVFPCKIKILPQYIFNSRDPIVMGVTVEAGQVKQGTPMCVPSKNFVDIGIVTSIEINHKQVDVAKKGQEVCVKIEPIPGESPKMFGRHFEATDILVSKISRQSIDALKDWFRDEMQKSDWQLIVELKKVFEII

[4] = target: Adenosine kinase (Homo sapiens, UniProt P55263)
Chain of Adenosine kinase (P55263 whole entry): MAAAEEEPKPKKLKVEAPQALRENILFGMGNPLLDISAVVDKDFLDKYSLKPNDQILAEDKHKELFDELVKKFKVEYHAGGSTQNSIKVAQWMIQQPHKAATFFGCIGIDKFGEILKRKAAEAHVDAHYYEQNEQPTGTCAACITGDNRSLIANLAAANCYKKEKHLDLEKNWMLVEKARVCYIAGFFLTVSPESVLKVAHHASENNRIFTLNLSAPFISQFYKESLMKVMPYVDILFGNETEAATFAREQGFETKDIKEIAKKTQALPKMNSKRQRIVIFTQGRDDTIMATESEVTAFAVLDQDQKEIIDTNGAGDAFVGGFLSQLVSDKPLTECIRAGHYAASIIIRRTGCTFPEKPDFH

[5] = target: Atypical kinase COQ8A, mitochondrial (Homo sapiens, UniProt Q8NI60)
Chain of Atypical kinase COQ8A, mitochondrial (Q8NI60 whole entry): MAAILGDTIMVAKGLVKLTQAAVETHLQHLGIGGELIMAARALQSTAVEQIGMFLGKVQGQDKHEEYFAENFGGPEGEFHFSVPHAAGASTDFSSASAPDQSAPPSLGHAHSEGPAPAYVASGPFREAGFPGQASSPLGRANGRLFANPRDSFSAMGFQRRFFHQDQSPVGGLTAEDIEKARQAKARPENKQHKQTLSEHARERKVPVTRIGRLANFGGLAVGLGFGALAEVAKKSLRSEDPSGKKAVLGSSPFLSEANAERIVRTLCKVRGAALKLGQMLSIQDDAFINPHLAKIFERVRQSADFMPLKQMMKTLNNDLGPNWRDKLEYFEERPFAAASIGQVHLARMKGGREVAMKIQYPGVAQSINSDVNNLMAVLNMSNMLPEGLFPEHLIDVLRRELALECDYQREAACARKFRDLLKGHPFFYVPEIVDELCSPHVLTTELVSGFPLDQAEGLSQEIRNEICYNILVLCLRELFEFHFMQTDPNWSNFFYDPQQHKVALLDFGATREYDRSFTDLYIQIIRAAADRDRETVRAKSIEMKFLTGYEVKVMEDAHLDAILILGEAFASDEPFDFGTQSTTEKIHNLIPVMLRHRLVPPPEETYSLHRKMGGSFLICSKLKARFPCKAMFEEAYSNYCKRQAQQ

[6] = target: Bone morphogenetic protein receptor type-1A (Homo sapiens, UniProt P36894)
Chain of Bone morphogenetic protein receptor type-1A (P36894 whole entry): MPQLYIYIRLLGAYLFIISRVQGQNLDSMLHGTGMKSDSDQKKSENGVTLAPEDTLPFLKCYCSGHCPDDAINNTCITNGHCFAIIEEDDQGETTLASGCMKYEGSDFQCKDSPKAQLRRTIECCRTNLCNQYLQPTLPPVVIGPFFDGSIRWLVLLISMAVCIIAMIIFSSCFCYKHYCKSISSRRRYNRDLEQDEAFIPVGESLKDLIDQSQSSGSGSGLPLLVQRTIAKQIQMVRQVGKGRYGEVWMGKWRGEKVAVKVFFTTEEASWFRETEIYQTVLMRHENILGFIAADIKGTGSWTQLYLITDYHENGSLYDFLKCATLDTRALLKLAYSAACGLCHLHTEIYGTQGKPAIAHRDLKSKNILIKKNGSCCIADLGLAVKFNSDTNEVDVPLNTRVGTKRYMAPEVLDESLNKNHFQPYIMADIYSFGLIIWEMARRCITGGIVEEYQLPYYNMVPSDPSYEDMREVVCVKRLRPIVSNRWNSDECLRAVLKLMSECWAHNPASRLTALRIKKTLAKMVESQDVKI

[7] = target: Dual specificity mitogen-activated protein kinase kinase 1 (Homo sapiens, UniProt Q02750)
Chain of Dual specificity mitogen-activated protein kinase kinase 1 (Q02750 whole entry): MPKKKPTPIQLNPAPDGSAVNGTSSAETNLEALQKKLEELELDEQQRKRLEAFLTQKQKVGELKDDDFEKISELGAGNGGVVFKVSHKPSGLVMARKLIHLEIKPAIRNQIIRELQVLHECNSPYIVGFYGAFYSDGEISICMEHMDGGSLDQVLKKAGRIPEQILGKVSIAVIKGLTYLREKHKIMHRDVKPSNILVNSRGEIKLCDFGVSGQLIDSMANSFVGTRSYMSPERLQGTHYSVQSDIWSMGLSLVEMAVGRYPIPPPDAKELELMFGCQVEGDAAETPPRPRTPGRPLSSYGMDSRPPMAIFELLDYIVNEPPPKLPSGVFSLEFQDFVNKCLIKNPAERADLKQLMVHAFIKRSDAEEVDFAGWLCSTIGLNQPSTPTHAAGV

[8] = target: T2, ADP/ATP translocase 3 (Homo sapiens, UniProt P12236)
T2 sequence (P12236 whole entry): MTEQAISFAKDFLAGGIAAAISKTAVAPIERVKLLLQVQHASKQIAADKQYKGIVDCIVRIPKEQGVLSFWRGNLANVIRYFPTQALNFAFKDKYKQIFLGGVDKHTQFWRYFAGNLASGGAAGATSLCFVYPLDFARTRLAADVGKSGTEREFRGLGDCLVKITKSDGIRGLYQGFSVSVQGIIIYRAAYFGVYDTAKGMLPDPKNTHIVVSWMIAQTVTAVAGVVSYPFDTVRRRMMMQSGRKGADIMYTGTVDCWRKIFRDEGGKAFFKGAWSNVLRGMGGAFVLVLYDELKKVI

[9] = target: Ribosomal protein S6 kinase alpha-6 (Homo sapiens, UniProt Q9UK32)
Chain of Ribosomal protein S6 kinase alpha-6 (Q9UK32 whole entry): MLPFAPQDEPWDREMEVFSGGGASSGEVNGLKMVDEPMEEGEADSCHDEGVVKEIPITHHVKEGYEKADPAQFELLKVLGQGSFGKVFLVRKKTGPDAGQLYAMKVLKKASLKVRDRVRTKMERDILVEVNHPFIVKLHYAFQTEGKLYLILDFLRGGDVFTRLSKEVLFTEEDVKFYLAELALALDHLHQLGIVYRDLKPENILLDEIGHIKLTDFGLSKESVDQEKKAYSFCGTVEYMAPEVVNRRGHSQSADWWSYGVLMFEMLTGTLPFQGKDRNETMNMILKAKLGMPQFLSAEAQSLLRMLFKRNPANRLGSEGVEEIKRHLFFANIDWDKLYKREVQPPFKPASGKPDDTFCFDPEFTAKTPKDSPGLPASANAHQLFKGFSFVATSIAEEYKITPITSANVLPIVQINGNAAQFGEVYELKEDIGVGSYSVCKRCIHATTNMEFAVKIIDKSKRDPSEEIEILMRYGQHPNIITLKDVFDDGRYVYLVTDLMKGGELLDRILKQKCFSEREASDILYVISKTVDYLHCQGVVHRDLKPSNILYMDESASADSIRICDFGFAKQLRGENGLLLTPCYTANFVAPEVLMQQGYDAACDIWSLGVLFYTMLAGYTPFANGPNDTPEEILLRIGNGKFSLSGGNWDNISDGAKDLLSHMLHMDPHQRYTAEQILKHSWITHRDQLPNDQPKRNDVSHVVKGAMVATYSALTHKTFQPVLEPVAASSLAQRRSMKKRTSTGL

[10] = target: Serine/threonine-protein kinase 16 (Homo sapiens, UniProt O75716)
Chain of Serine/threonine-protein kinase 16 (O75716 whole entry): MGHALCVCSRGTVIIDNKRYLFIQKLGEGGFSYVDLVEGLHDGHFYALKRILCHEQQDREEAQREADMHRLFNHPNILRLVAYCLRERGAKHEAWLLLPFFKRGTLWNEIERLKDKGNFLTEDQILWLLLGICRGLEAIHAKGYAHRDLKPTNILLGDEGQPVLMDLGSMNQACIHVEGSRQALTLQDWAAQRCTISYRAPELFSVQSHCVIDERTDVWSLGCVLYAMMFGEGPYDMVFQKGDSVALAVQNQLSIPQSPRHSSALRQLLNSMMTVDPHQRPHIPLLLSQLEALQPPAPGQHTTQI

[11] = target: Ephrin type-A receptor 4 (Homo sapiens, UniProt P54764)
Chain of Ephrin type-A receptor 4 (P54764 whole entry): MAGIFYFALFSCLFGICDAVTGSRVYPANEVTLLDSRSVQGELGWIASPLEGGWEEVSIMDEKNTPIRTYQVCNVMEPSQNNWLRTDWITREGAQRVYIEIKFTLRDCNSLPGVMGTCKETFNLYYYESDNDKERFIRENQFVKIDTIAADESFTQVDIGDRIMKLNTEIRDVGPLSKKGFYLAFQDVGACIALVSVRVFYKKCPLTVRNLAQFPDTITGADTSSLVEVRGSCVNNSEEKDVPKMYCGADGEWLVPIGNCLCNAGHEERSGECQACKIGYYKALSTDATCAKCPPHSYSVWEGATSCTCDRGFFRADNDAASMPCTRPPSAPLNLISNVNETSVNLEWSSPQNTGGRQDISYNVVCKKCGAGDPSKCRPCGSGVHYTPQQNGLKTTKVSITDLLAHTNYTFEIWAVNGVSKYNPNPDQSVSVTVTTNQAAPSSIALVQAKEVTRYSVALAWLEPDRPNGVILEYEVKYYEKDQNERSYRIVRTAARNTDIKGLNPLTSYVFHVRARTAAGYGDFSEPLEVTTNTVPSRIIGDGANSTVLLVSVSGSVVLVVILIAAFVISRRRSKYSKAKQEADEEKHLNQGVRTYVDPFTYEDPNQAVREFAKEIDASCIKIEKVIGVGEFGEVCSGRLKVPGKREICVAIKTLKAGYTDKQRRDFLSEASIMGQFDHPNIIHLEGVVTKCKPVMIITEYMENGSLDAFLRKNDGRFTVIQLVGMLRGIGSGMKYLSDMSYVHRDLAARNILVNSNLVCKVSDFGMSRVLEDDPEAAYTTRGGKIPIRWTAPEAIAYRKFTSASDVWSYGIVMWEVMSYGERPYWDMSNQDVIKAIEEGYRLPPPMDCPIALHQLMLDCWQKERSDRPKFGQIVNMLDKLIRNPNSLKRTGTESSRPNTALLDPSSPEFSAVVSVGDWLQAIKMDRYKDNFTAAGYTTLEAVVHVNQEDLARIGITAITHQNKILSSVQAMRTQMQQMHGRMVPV

[12] = target: T3, Inhibitor of nuclear factor kappa-B kinase subunit epsilon (Homo sapiens, UniProt Q14164)
T3 sequence (Q14164 whole entry): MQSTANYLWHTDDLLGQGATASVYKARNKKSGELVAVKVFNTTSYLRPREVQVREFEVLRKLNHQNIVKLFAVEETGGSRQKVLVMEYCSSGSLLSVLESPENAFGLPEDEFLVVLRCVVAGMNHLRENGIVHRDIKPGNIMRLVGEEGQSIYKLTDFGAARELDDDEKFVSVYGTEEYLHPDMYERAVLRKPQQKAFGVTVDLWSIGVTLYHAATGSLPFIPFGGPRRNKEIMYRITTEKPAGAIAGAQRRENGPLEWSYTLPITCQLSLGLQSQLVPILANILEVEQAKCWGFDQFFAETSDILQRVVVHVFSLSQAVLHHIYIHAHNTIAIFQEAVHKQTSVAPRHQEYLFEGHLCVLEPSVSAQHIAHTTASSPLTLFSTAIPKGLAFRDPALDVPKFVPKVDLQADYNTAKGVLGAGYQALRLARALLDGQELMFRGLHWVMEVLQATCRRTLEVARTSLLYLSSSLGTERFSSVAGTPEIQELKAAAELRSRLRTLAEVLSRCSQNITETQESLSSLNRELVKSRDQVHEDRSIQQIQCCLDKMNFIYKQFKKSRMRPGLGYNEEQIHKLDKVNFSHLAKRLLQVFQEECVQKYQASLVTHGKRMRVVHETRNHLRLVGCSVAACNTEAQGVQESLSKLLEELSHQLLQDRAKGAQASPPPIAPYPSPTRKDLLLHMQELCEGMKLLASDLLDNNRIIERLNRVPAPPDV

[13] = target: Myosin light chain kinase, smooth muscle (Homo sapiens, UniProt Q15746)
Also: in the data inactive means no Kd found up to 30 µM.

Chain of Casein kinase I isoform gamma-1 (Q9HCP0 whole entry, canonical isoform): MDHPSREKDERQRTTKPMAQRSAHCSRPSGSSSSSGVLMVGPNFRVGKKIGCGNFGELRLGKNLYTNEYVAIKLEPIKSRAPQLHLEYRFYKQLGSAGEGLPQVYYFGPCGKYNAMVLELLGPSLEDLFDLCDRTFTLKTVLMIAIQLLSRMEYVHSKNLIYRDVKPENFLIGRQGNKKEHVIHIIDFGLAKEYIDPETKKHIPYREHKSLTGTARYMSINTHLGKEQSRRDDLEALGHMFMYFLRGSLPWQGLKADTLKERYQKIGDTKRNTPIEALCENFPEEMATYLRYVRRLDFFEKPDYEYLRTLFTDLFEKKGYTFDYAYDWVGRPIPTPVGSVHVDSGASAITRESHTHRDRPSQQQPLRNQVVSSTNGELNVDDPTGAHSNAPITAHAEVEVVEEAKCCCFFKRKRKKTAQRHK
Chain of Serine/threonine-protein kinase pim-1 (P11309 whole entry, canonical isoform): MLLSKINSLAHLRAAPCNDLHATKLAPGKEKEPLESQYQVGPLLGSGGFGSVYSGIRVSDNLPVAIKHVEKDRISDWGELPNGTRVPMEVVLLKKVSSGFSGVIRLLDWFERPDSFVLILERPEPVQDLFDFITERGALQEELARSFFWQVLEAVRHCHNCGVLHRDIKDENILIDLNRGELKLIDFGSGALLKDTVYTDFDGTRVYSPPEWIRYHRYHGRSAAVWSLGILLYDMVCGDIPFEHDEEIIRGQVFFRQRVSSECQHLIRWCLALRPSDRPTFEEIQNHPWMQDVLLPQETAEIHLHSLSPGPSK

CO[C@H]1C[C@@H]2CC[C@@H](C)[C@@](O)(O2)C(=O)C(=O)N2CCCC[C@H]2C(=O)O[C@H]([C@H](C)C[C@@H]2CC[C@@H](O)[C@H](OC)C2)CC(=O)[C@H](C)/C=C(\C)[C@@H](O)[C@@H](OC)C(=O)[C@H](C)C[C@H](C)/C=C/C=C/C=C/1C [SIROLIMUS]
inactive: Kd [1] > 30 µM | Kd [2] > 30 µM | Kd [3] > 30 µM | Kd [4] > 30 µM | Kd [5] > 30 µM | Kd [6] > 30 µM | Kd [7] > 30 µM | Kd [8] > 30 µM | Kd [9] > 30 µM | Kd [10] > 30 µM | Kd [11] > 30 µM | Kd [12] > 30 µM | Kd [13] > 30 µM

Cc1cc(Nc2ncnc3ccc(NC4=NC(C)(C)CO4)cc23)ccc1Oc1ccn2ncnc2c1 [TUCATINIB]
inactive: Kd [1] > 30 µM | Kd [2] > 30 µM | Kd [3] > 30 µM | Kd [4] > 30 µM | Kd [5] > 30 µM | Kd [6] > 30 µM | Kd [7] > 30 µM | Kd [8] > 30 µM | Kd [9] > 30 µM | Kd [10] > 30 µM | Kd [11] > 30 µM | Kd [12] > 30 µM | Kd [13] > 30 µM

CCS(=O)(=O)c1cccc(-c2cc(C(=O)NC3CCN(C)CC3)c(C)c3[nH]c4ncc(C)cc4c23)c1 [TAK-901]
inactive: Kd [1] > 30 µM | Kd [2] > 30 µM | Kd [3] > 30 µM | Kd [4] > 30 µM | Kd [5] > 30 µM | Kd [6] > 30 µM | Kd [7] > 30 µM | Kd [8] > 30 µM | Kd [12] > 30 µM | Kd [13] > 30 µM
active: Kd [9] 0.899 µM | Kd [10] 0.849 µM | Kd [11] 0.022 µM

O=C(Cc1ccc(-c2ccc(OCCN3CCOCC3)cc2)cn1)NCc1ccccc1 [TIRBANIBULIN]
inactive: Kd [1] > 30 µM | Kd [2] > 30 µM | Kd [3] > 30 µM | Kd [4] > 30 µM | Kd [5] > 30 µM | Kd [6] > 30 µM | Kd [7] > 30 µM | Kd [8] > 30 µM | Kd [9] > 30 µM | Kd [10] > 30 µM | Kd [11] > 30 µM | Kd [12] > 30 µM | Kd [13] > 30 µM

COc1cc2ncnc(Oc3cccc(NC(=O)Nc4cc(C(C)(C)C(F)(F)F)on4)c3)c2cc1OC [CEP-32496]
active: Kd [13] 2.68 µM
inactive: Kd [1] > 30 µM | Kd [2] > 30 µM | Kd [3] > 30 µM | Kd [4] > 30 µM | Kd [5] > 30 µM | Kd [6] > 30 µM | Kd [7] > 30 µM | Kd [8] > 30 µM | Kd [9] > 30 µM | Kd [10] > 30 µM | Kd [11] > 30 µM | Kd [12] > 30 µM

Cc1nc2cc(-c3nn(C(C)C)c4ncnc(N)c34)ccc2o1
inactive: Kd [1] > 30 µM | Kd [2] > 30 µM | Kd [3] > 30 µM | Kd [4] > 30 µM | Kd [5] > 30 µM | Kd [8] > 30 µM | Kd [9] > 30 µM | Kd [11] > 30 µM | Kd [12] > 30 µM | Kd [13] > 30 µM
active: Kd [6] 1.28 µM | Kd [7] 3.01 µM | Kd [10] 2.01 µM

O=C1NC(=O)[C@@H](c2cn3c4c(cccc24)CCC3)[C@@H]1c1c[nH]c2ccccc12 [TIVANTINIB]
6.63: pKd [3]
inactive: Kd [1] > 30 µM | Kd [2] > 30 µM | Kd [4] > 30 µM | Kd [5] > 30 µM | Kd [6] > 30 µM | Kd [7] > 30 µM | Kd [8] > 30 µM | Kd [9] > 30 µM | Kd [10] > 30 µM | Kd [11] > 30 µM | Kd [12] > 30 µM | Kd [13] > 30 µM

COCC(=O)NC/C=C/c1ccc2ncnc(Nc3ccc(Oc4ccc(C)nc4)c(C)c3)c2c1 [CP-724714]
inactive: Kd [1] > 30 µM | Kd [2] > 30 µM | Kd [3] > 30 µM | Kd [4] > 30 µM | Kd [5] > 30 µM | Kd [6] > 30 µM | Kd [7] > 30 µM | Kd [8] > 30 µM | Kd [9] > 30 µM | Kd [10] > 30 µM | Kd [11] > 30 µM | Kd [12] > 30 µM | Kd [13] > 30 µM

Cc1nc(NC(=O)N2CCC[C@H]2C(N)=O)sc1-c1ccnc(C(C)(C)C(F)(F)F)c1 [ALPELISIB]
inactive: Kd [1] > 30 µM | Kd [2] > 30 µM | Kd [3] > 30 µM | Kd [4] > 30 µM | Kd [5] > 30 µM | Kd [6] > 30 µM | Kd [7] > 30 µM | Kd [8] > 30 µM | Kd [9] > 30 µM | Kd [10] > 30 µM | Kd [11] > 30 µM | Kd [12] > 30 µM | Kd [13] > 30 µM

CCCCCCCCCCCCCCCCCCOP(=O)([O-])OC1CC[N+](C)(C)CC1 [PERIFOSINE]
inactive: Kd [1] > 30 µM | Kd [2] > 30 µM | Kd [3] > 30 µM | Kd [4] > 30 µM | Kd [5] > 30 µM | Kd [6] > 30 µM | Kd [7] > 30 µM | Kd [8] > 30 µM | Kd [9] > 30 µM | Kd [10] > 30 µM | Kd [11] > 30 µM | Kd [12] > 30 µM | Kd [13] > 30 µM

C[C@H]1CNCCCN1S(=O)(=O)c1cccc2cncc(F)c12
inactive: Kd [1] > 30 µM | Kd [2] > 30 µM | Kd [3] > 30 µM | Kd [4] > 30 µM | Kd [5] > 30 µM | Kd [6] > 30 µM | Kd [7] > 30 µM | Kd [8] > 30 µM | Kd [9] > 30 µM | Kd [10] > 30 µM | Kd [11] > 30 µM | Kd [12] > 30 µM | Kd [13] > 30 µM
